Test results reported in US6369114B1, “Administration of an α2-adrenergic receptor agonist to enhance cardiopulmonary resuscitation” (Institute of Critical Care Medicine, priority 1999, dated 2002).

Legend:
[1] = tested on: post-resuscitation myocardial dysfunction, ventricular arrhythmias and survival; assay: Ventricular fibrillation cardiac arrest with precordial compression and defibrillation in rats (Example 1); type: in vivo, Sprague-Dawley rats; details: for duration of post-resuscitation survival: VF untreated 8 min, drug after 2 min precordial compression, α-methylnorepinephrine 100 μg/kg, epinephrine 30 μg/kg, FIG. 4; for resuscitation outcome: defibrillation attempted 4 min after drug
Description: Sprague-Dawley rats (450-570 g) were fasted overnight except for free access to water. The animals were anesthetized by intraperitoneal injection of 45 mg/kg pentobarbital sodium supplemented with additional doses of 10 mg/kg at hourly intervals, except that no pentobarbital was administered for 30 minutes before induction of cardiac arrest. The trachea was orally intubated with a 14-gauge cannula (Quick-Cath, Vicra division, Travenol Laboratory) mounted on a blunt needle with a 145° angled tip. For measurement of the partial pressure of carbon dioxide in the endotracheum (PETCO2), the respiratory gas was sampled through a side manifold interposed between the tracheal cannula and the respirator. The PCO2 was measured with a side-stream infrared CO2 analyzer (model 200, Instrumentation Laboratories). For measurement of left ventricular pressure, and both dP/dt40 (the rate of left ventricular pressure increase measured at a left ventricular pressure of 40 mm Hg, an indicator of isovolemic contractility) and negative dP/dt (the rate of left ventricular pressure decline, a measure of myocardial relaxation), a Teflon catheter (UTX 022; internal diameter, 0.6 mm; outer diameter, 0.97 mm; length 8 cm; Becton Dickinson) was advanced into the left ventricle from the right carotid artery. […] Guided by pressure monitoring, the catheter was slowly withdrawn into the right atrium. Right atrial pressure was measured with reference to the midchest with a high-sensitivity transducer (P-23-9b, Spectramed). This catheter was also used to sample blood from the right atrium. Through the right external jugular vein, a 3F pediatric radial artery catheter (model C-PUM-301J, Cook) was advanced into the right atrium. A precurved guide wire supplied with the catheter was then advanced through the catheter into the right ventricle until an endocardial ECG was observed. Through the right femoral artery, a Teflon catheter (UTX 022, Becton Dickinson) was advanced into the thoracic aorta for measurement of aortic pressure with a model TNF-R transducer (Abbott Critical Care). […] Rectal temperature was measured continuously with a rectal thermistor. Conventional lead II ECGs were recorded with skin electrodes (model E220, In-vivo Metric).
Ventricular fibrillation (VF) was induced and untreated for 8 minutes. Precordial compression (PC) was then initiated. After 2 minutes of precordial compression, animals were randomized to receive either the selective α2-adrenergic agent, α-methylnorepinephrine (100 μg/kg; catalog number M133, Research Biochemicals International; abbreviated “α-methylnorepi.”), epinephrine (30 μg/kg; abbreviated “epi.”) or saline placebo. Defibrillation (DF) was attempted 4 min. later. […] Baseline (BL) or control values are shown at the left of the figures.

[2] = tested on: post-resuscitation left ventricular function and ventricular arrhythmias; assay: Ventricular fibrillation cardiac arrest with precordial compression and defibrillation in pigs (Example 2); type: in vivo, Male domestic pigs; details: for resuscitation outcome: defibrillation attempted 4 min after drug
Description: Male domestic pigs weighing between 40 and 45 kg were fasted overnight except for free access to water. Anesthesia was initiated by intramuscular injection of ketamine (20 mg/kg) and completed by ear vein injection of sodium pentobarbital (30 mg/kg). Additional doses of sodium pentobarbital (8 mg/kg) were injected at intervals of 1 h to maintain anesthesia. A cuffed endotracheal tube was advanced into the trachea. Animals were mechanically ventilated with a volume-controlled ventilator (Model MA-1; Puritan-Bennett, Carlsbad, Calif.). End tidal PCO2 (PETCO2) was monitored with an infrared analyzer (Model 01R-7101A; Nihon Kohden Corp., Tokyo, Japan). Respiratory frequency was adjusted to maintain PETCO2 between 35 and 40 mm Hg.
For the measurement of left ventricular function, a 5-MHZ single plane with 5 MHZ continuous-wave Doppler transesophageal echocardiographic transducer with four-way flexure (Model 21363A; Hewlett-Packard Co., Medical Products Group, Andover Mass.) was advanced from the incisor teeth into the esophagus for a distance of approximately 35 cm. For the measurement of aortic pressure, a fluid-filled catheter was advanced from the left femoral artery into the thoracic aorta. For the measurement of right atrial pressure, pulmonary arterial pressures and blood temperature, a 7-F, pentalumen, thermodilation-tip catheter was advanced from the left femoral vein and flow directed into the pulmonary artery. For inducing ventricular fibrillation (VF), a 5-F pacing catheter (EP Technologies, Inc., Mountain View, Calif.) was advanced from the right cephalic vein into the right ventricle until an electrocardiographic current of injury was recorded.
Ventricular fibrillation (VF) was induced and untreated for 7 minutes. Precordial compression (PC) was then initiated. After 2 minutes of precordial compression, animals were randomized to receive either the selective α2-adrenergic agent, α-methylnorepinephrine (100 μg/kg; catalog number M133, Research Biochemicals International) or epinephrine (30 μg/kg). Defibrillation was attempted 4 min. later. […] A lower incidence of post-resuscitation ventricular arrhythmias was again observed with those animals receiving α-methylnorepinephrine.

[3] = immediately following administration, under spontaneous circulation and during CPR; cited from earlier work
[4] = compared with epinephrine; cited from earlier work

With `CNC[C@H](O)c1ccc(O)c(O)c1` [epinephrine] as the compound, how does the “duration of post-resuscitation survival” value [1] read?
The value was 19 h.

And the resuscitation outcome [1]?
Its resuscitation outcome is “successfully resuscitated”.

What about the resuscitation outcome [2] of the same compound?
The resuscitation outcome was “successfully resuscitated”.

And the “decrease of end tidal CO2 (ETCO2)” value [3]?
Its value is 50%.

With `COc1ccc(OC)c(C(O)C(C)N)c1` (centres unmarked) [methoxamine] as the compound, how does the “effectiveness for restoring spontaneous circulation” value [4] read?
Its value is “as effective as epinephrine”.

With `CNC[C@H](O)c1cccc(O)c1` [phenylephrine] as the compound, how does the “effectiveness for restoring spontaneous circulation” value [4] read?
The value was “as effective as epinephrine”.

What does the source list for `CC(N)[C@H](O)c1ccc(O)c(O)c1` (stereo partly drawn) [α-methylnorepinephrine, α-(1-aminoethyl),3,4-dihydroxybenzyl alcohol]?
post-resuscitation myocardial dysfunction as measured by dp/dt40 ([1]; 100 μg/kg, vs epinephrine or saline placebo, FIG. 1): significantly less severe; post-resuscitation myocardial dysfunction as measured by negative dP/dt ([1]; 100 μg/kg, vs epinephrine or saline placebo, FIG. 2): significantly less severe; post-resuscitation myocardial dysfunction as measured by cardiac index (CI) ([1]; 100 μg/kg, vs epinephrine or saline placebo, FIG. 3): significantly less severe; duration of post-resuscitation survival [1]: 72 h; resuscitation outcome [1]: successfully resuscitated; incidence of post-resuscitation ventricular arrhythmias ([1]; α-methylnorepinephrine 100 μg/kg vs epinephrine 30 μg/kg or saline placebo): significantly lower; post-resuscitation left ventricular stroke volume ([2]; 100 μg/kg vs epinephrine 30 μg/kg, transesophageal echo-Doppler, FIG. 5): markedly improved; post-resuscitation ejection fraction ([2]; 100 μg/kg vs epinephrine 30 μg/kg, transesophageal echo-Doppler, FIG. 6): markedly improved; post-resuscitation cardiac output ([2]; 100 μg/kg vs epinephrine 30 μg/kg, transesophageal echo-Doppler, FIG. 7): markedly improved; incidence of post-resuscitation ventricular arrhythmias ([2]; VF untreated 7 min, α-methylnorepinephrine 100 μg/kg vs epinephrine 30 μg/kg): lower; resuscitation outcome [2]: successfully resuscitated
